Data taken from the Deep4Chem optical property database.
Blank lines part the entries; values can stand above or below the molecule they belong to.

Experiment: solvent given as SMILES

absorption maximum (in C1CCOC1): 337 nm
Structure (SMILES): CCCCn1c2ccc(-c3cccs3)cc2c2c1c1c3ccc(-c4cccs4)cc3n(CCCC)c1c1c3ccc(-c4cccs4)cc3n(CCCC)c21

absorption maximum (in ClC(Cl)Cl): 410 nm
Structure (SMILES): O=C1CC(c2ccc(Cl)cc2)c2c(c3ccccc3c3nc4ccccc4nc23)O1 (centres undefined)

absorption maximum (in ClCCl): 339 nm
Structure (SMILES): COc1ccc(/C=C/c2cc(/C=C/c3ccc(OC)cc3)nc(/C=C/c3ccc(OC)cc3)n2)cc1

absorption maximum (in ClC(Cl)Cl): 788 nm
Structure (SMILES): COc1ccc(C2=c3sc(-c4ccc(OC)cc4)cc3=[N+]3C2=Nc2c(-c4ccc(OC)cc4)c4sc(-c5ccc(OC)cc5)cc4n2[B-]3(F)F)cc1

absorption maximum (in C1CCCCC1): 563.5 nm | absorption maximum (in CC#N): 553 nm | absorption maximum (in CCO): 559 nm | absorption maximum (in CCOC(C)=O): 556.5 nm | absorption maximum (in CO): 557.5 nm | absorption maximum (in OCC(F)(F)F): 553 nm
Structure (SMILES): Cc1ccc(C2=C3C=C(I)C=[N+]3[B-](F)(F)n3c2cc(I)c3I)cc1

absorption maximum (in ClCCl): 580 nm
Structure (SMILES): COc1ccc(-c2c3cc4ccccc4cc3c(C#Cc3ccccc3)c3cc4cc(C)sc4cc23)cc1

absorption maximum (in ClCCl): 318 nm
Structure (SMILES): CN(C)c1cc(-c2ccccc2)cc2ccccc12

absorption maximum (in CS(C)=O): 468 nm | absorption maximum (in ClCCl): 459 nm
Structure (SMILES): CCN(CC)c1ccc2c(c1)oc(=O)c1c(=O)oc3cc(C#Cc4ccc(N(C)C)cc4)ccc3c12

absorption maximum (in C1CCOC1): 365 nm
Structure (SMILES): C1=C(c2ccccc2)C=C(c2ccccc2)/C1=C/C1CCCCC1

absorption maximum (in ClCCl): 726 nm
Structure (SMILES): C1=Cc2nc1c(-c1ccccc1)c1ccc([nH]1)c(-c1ccccc1)c1cc(c(-c3ccccc3)c3ccc([nH]3)c2-c2ccccc2)N=C1

absorption maximum (in ClCCl): 450 nm
Structure (SMILES): COc1ccc(-c2c3ccccc3c(-c3ccc(OC)cc3)c3cc4sc(C)cc4cc23)cc1

absorption maximum (in C1CCOC1): 538 nm
Structure (SMILES): FC(F)(F)C(F)(F)C(F)(F)c1nc2c(-c3ccsc3)cc3c4cc(-c5ccsc5)c5nc(C(F)(F)C(F)(F)C(F)(F)F)nc6c(-c7ccsc7)cc(c7cc(-c8ccsc8)c(n1)c2c37)c4c56

absorption maximum (in CN(C)C=O): 393 nm
Structure (SMILES): CCN(CC)c1ccc(-c2nc(Oc3ccc(-c4nc5ccc(Cl)cc5o4)cc3)nc(Oc3ccc(-c4nc5ccc(Cl)cc5o4)cc3)n2)cc1

absorption maximum (in ClC(Cl)Cl): 372 nm
Structure (SMILES): Cc1c2c(nc3ccccc13)-c1cc3c(cc1CC2)-c1nc2ccccc2c(C)c1CC3

absorption maximum (in C1CCOC1): 342 nm
Structure (SMILES): F[B-]1(F)Oc2c(-c3cccc4c3O[B-](F)(F)[n+]3c(-c5ccccc5)c(-c5ccccc5)n(-c5ccc(C(F)(F)F)cc5)c3-4)cccc2-c2n(-c3ccc(C(F)(F)F)cc3)c(-c3ccccc3)c(-c3ccccc3)[n+]21

The next lines start with the molecule.

Structure (SMILES): CC(C)(C)c1ccc2c3c(c4ccc(C(C)(C)C)cc4c2c1)=[N+]1C(=C(c2ccccc2)c2cc4c5ccc(C(C)(C)C)cc5c5cc(C(C)(C)C)ccc5c4n2[B-]1(F)F)C=3
absorption maximum (in C1CCCCC1): 693 nm | absorption maximum (in C1CCOC1): 689 nm | absorption maximum (in CC#N): 683 nm | absorption maximum (in Cc1ccccc1): 694 nm | absorption maximum (in ClCCl): 691 nm

Structure (SMILES): CNc1cccc2c1C(=O)c1ccccc1C2=O
absorption maximum (in C1CCC2CCCCC2C1): 488 nm | absorption maximum (in C1CCCCC1): 488 nm | absorption maximum (in CC1CCCCC1): 489 nm | absorption maximum (in CC#N): 501 nm | absorption maximum (in CCC(C)CC): 487 nm | absorption maximum (in CCCCCC): 487 nm | absorption maximum (in CCOC(C)=O): 497.5 nm

Structure (SMILES): C[Si](C)(C)c1cccc2ccccc12
absorption maximum (in C1CCCCC1): 294 nm

Structure (SMILES): CCN(CC)c1ccc2cc(/C=C/C(=O)/C=C(O)/C=C/c3cc4ccc(N(CC)CC)cc4oc3=O)c(=O)oc2c1
absorption maximum (in C1CCOC1): 518 nm | absorption maximum (in C1COCCO1): 514 nm | absorption maximum (in CC#N): 521 nm | absorption maximum (in CC(C)=O): 519 nm | absorption maximum (in CCOC(C)=O): 514 nm | absorption maximum (in CN(C)C=O): 527 nm | absorption maximum (in CS(C)=O): 540 nm | absorption maximum (in Cc1ccccc1): 518 nm | absorption maximum (in ClC(Cl)Cl): 520 nm | absorption maximum (in ClCCl): 523 nm

Structure (SMILES): c1ccc([B-]2(c3ccccc3)Oc3ccc4ccccc4c3-c3c4ccccc4nc[n+]32)cc1
absorption maximum (in Cc1ccccc1): 451 nm

Structure (SMILES): N#Cc1nn(-c2ccc(Cl)cc2)nc1N1CCCC1
absorption maximum (in CC#N): 346 nm

Structure (SMILES): O=S(=O)(c1ccc(N2c3ccccc3[Si](c3ccccc3)(c3ccccc3)c3ccccc32)cc1)c1ccc(N2c3ccccc3[Si](c3ccccc3)(c3ccccc3)c3ccccc32)cc1
absorption maximum (in Cc1ccccc1): 328 nm

Structure (SMILES): CN(C)c1ccc(C#Cc2ncnc3ccccc23)cc1
absorption maximum (in ClCCl): 384 nm

Structure (SMILES): CCCCCCc1ccc(/C=C/c2ccc(CCCCCC)s2)s1
absorption maximum (in Cc1ccccc1): 356 nm

Structure (SMILES): CCCCc1ccc(-n2c3c(c4c2c2c(n4-c4ccc(CCCC)cc4)-c4cc(F)ccc4NB2c2ccccc2)B(c2ccccc2)Nc2ccc(F)cc2-3)cc1
absorption maximum (in Cc1ccccc1): 395 nm

Structure (SMILES): CCN(CC)c1ccc(/N=N/c2nc3ccc(OC)cc3s2)cc1
absorption maximum (in CC#N): 515 nm | absorption maximum (in ClCCl): 517 nm

Structure (SMILES): CCCCCCn1c(=O)c2c3[nH]c4cc5sc6c([nH]c5cc4sc3c3c(=O)n(CCCCCC)c(=O)c3c2c1=O)c1c(=O)n(CCCCCC)c(=O)c1c1c(=O)n(CCCCCC)c(=O)c61
absorption maximum (in ClCCl): 549 nm

Structure (SMILES): CCOC(=O)c1c2c3c(ccc([N+](=O)[O-])c3c3cc4c(cc13)[Si](C)(C)O[Si]4(C)C)N(C)C2=O
absorption maximum (in CC#N): 376 nm

Structure (SMILES): COc1ccc2c(c1)c1cc(OC)ccc1n2-c1nc2ccccc2nc1-n1c2ccc(OC)cc2c2cc(OC)ccc21
absorption maximum (in Cc1ccccc1): 437 nm

Structure (SMILES): C=CCOC(=O)C(C#N)=C1C=C(/C=C/c2ccc(N(C)C)cc2)OC(/C=C/c2ccc(N(C)C)cc2)=C1
absorption maximum (in C1CCOC1): 470 nm | absorption maximum (in C1COCCO1): 462 nm | absorption maximum (in CC#N): 476 nm | absorption maximum (in CN(C)C=O): 486 nm | absorption maximum (in Cc1ccccc1): 467 nm | absorption maximum (in ClC(Cl)Cl): 479 nm | absorption maximum (in ClCCCl): 482 nm | absorption maximum (in ClCCl): 481 nm

Structure (SMILES): CCCCCCCCCCCCOc1cc(/C=C/c2ccc3c(c2)C(CC)(CC)c2cc(N4c5ccccc5Sc5ccccc54)ccc2-3)c(OCCCCCCCCCCCC)cc1/C=C/c1ccc2c(c1)C(CC)(CC)c1cc(N3c4ccccc4Sc4ccccc43)ccc1-2
absorption maximum (in C1CCOC1): 442.41 nm | absorption maximum (in CC#N): 436.72 nm | absorption maximum (in CCCCCC): 436.38 nm | absorption maximum (in Cc1ccccc1): 442.93 nm | absorption maximum (in ClCCl): 420 nm

Structure (SMILES): CC(C)(C)c1ccc2c(c1)c1cc(C(C)(C)C)ccc1n2-c1cccc(-c2nc(-c3cccc(-n4c5ccc(C(C)(C)C)cc5c5cc(C(C)(C)C)ccc54)c3)nc(-c3cccc(P(=O)(c4ccccc4)c4ccccc4)c3)n2)c1
absorption maximum (in C1CCOC1): 344.36 nm | absorption maximum (in CC#N): 344.36 nm | absorption maximum (in CC(C)=O): 344.36 nm | absorption maximum (in CN(C)C=O): 344.36 nm | absorption maximum (in Cc1ccccc1): 344.36 nm | absorption maximum (in ClC(Cl)Cl): 344.36 nm | absorption maximum (in ClCCl): 344.36 nm

Structure (SMILES): CC1(C)c2ccccc2N(c2ccc(C(=O)/C=C(\O)c3ccc(N4c5ccccc5C(C)(C)c5ccccc54)cc3)cc2)c2ccccc21
absorption maximum (in Cc1ccccc1): 406 nm

Structure (SMILES): CC1(C)CC(=O)c2c(F)c(F)c(F)c(F)c2N1
absorption maximum (in CC#N): 360 nm

Structure (SMILES): C(S/C=C/c1ccc(-c2ccc(/C=C/SC=C3CCCCC3)cc2)cc1)=C1CCCCC1
absorption maximum (in ClCCl): 351 nm

Structure (SMILES): COc1ccc2c(c1)c1c(OC)c3ccccc3c(OC)c1n2C
absorption maximum (in C1CCCCC1): 421 nm | absorption maximum (in CC#N): 422 nm | absorption maximum (in CO): 421 nm | absorption maximum (in ClCCl): 425 nm

Structure (SMILES): CCN(CC)c1ccc([N+]2=Cc3ccc4c5c(ccc4c3O[B-]2(c2ccccc2)c2ccccc2)C=[N+](c2ccc(N(CC)CC)cc2)[B-](c2ccccc2)(c2ccccc2)O5)cc1
absorption maximum (in Cc1ccccc1): 558 nm | absorption maximum (in ClCCl): 552 nm
